Laboratory results reported in publication PMC7180948, “New Insights into 4-Anilinoquinazolines as Inhibitors of Cardiac Troponin I–Interacting Kinase (TNNi3K)” (Molecules, 2020).

What was measured:
Test in all cases: biochemical
Parameters in all cases: KINOMEscan competition binding panel (Eurofins DiscoverX), single concentration, % inhibition
Settings in all cases: read-out: 7 at 1 µM % inhibition
PAK6 = PAK6 (Homo sapiens, UniProt Q9NQU5)
In short: (§1)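 KINOMEscan binding panel of >400 kinases, run by Eurofins DiscoverX, with compounds tested at a single concentration of 1 µM.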

AXL = AXL (Homo sapiens, UniProt P30530)
In short: as §1

JNK2 = target: T1, JNK2 (Homo sapiens, UniProt P45984)
T1 construct: gene MAPK9
T1 sequence (P45984 whole entry): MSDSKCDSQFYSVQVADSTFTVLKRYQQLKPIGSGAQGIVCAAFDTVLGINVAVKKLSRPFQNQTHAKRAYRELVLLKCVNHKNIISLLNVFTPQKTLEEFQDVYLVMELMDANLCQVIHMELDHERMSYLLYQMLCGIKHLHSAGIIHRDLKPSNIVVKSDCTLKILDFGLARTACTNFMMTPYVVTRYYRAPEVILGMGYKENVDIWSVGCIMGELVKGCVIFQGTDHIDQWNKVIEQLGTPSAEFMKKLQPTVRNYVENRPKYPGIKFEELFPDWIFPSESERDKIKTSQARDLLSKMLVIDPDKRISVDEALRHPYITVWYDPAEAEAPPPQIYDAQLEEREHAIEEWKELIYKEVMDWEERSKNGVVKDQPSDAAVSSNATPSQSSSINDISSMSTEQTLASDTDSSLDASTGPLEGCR
In short: as §1

ERK3 = target: T2, ERK3 (Homo sapiens, UniProt Q16659)
T2 construct: gene MAPK6
In short: as §1

[1] = target: T3, RPS6KA5(Kin.Dom.2-C-terminal) (Homo sapiens, UniProt O75582)
T3 construct: Kin.Dom.2-C-terminal
In short: as §1

PCTK1 = target: T4, PCTK1 (Homo sapiens, UniProt Q00536)
T4 construct: gene CDK16
T4 sequence (Q00536 whole entry): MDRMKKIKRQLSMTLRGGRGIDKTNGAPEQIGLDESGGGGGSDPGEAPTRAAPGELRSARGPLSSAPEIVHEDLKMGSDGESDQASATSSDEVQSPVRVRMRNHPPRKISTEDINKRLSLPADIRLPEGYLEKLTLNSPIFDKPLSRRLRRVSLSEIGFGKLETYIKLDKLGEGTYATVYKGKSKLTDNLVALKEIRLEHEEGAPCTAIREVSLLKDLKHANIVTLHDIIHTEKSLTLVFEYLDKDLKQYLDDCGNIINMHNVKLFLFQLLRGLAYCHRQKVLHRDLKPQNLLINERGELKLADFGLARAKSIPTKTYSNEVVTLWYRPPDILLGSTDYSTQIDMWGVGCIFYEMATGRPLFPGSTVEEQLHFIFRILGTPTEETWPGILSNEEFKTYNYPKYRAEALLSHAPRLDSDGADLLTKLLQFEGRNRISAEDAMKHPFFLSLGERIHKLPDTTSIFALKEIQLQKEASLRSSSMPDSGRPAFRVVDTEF
In short: as §1

ERBB3 = ERBB3 (Homo sapiens, UniProt P21860)
In short: as §1

PFTAIRE2 = target: T5, PFTAIRE2 (Homo sapiens, UniProt Q96Q40)
T5 construct: gene CDK15
T5 sequence (Q96Q40 whole entry): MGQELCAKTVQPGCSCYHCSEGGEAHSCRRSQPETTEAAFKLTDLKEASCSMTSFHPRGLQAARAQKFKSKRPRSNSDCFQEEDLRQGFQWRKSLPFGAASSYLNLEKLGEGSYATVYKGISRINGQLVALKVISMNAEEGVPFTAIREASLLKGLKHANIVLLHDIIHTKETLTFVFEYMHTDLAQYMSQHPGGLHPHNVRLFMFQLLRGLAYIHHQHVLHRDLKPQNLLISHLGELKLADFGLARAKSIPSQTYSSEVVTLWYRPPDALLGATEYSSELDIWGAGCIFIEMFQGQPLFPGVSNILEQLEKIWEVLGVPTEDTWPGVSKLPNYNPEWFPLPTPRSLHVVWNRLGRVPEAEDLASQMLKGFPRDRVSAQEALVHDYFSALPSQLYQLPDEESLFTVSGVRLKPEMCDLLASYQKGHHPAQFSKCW
In short: as §1

GRK1 = GRK1 (Homo sapiens, UniProt Q15835)
In short: as §1

[2] = target: T6, JAK3(JH1domain-catalytic) (Homo sapiens, UniProt P52333)
T6 construct: JH1domain-catalytic
In short: as §1

PLK1 = PLK1 (Homo sapiens, UniProt P53350)
Chain of PLK1 (P53350 whole entry): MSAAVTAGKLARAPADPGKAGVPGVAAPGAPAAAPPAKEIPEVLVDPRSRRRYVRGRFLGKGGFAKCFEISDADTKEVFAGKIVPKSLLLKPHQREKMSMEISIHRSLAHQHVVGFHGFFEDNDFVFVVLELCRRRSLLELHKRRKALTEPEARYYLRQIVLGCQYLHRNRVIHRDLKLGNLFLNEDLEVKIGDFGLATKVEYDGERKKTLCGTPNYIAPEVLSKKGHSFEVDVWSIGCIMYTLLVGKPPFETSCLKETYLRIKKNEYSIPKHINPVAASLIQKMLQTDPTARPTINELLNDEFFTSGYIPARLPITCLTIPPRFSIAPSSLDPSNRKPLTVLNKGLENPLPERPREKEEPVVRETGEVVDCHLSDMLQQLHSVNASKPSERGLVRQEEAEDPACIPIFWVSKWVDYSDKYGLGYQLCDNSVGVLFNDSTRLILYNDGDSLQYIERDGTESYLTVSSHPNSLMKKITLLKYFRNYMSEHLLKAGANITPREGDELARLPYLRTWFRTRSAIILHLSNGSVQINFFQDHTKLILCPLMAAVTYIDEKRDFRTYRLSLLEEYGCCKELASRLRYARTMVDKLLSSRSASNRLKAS
In short: as §1

PRKCH = PRKCH (Homo sapiens, UniProt P24723)
In short: as §1

CHEK2 = CHEK2 (Homo sapiens, UniProt O96017)
In short: as §1

PIK3CA(H1047L) = PIK3CA(H1047L) (Homo sapiens, UniProt P42336, H1047L)
In short: as §1

CSF1R-autoinhibited = CSF1R-autoinhibited (Homo sapiens, UniProt P07333)
Chain of CSF1R-autoinhibited (P07333 whole entry): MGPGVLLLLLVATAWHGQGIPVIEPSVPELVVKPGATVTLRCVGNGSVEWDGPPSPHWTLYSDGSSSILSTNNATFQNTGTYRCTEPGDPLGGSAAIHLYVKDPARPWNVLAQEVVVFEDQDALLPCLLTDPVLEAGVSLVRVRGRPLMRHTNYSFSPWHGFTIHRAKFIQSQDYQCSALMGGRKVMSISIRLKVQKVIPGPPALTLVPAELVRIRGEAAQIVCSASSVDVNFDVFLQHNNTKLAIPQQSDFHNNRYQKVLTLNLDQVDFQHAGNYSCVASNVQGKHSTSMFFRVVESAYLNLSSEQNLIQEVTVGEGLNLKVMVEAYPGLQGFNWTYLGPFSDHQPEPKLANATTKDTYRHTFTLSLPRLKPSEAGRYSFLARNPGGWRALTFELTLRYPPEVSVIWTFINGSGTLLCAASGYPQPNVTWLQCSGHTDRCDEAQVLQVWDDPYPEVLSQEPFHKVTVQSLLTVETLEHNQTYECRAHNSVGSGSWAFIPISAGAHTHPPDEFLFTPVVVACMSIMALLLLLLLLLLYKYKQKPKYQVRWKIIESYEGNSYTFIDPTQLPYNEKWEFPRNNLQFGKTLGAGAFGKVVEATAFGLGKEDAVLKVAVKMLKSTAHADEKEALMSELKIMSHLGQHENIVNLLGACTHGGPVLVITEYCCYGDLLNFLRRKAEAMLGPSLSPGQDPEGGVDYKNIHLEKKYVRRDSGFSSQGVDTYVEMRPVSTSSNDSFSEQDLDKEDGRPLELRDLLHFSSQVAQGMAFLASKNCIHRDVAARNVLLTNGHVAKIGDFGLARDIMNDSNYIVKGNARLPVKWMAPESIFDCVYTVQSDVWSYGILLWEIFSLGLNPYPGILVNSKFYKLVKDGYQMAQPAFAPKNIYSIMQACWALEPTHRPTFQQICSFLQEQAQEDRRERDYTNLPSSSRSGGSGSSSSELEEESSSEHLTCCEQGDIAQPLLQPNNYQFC
In short: as §1

EPHB4 = EPHB4 (Homo sapiens, UniProt P54760)
Chain of EPHB4 (P54760 whole entry): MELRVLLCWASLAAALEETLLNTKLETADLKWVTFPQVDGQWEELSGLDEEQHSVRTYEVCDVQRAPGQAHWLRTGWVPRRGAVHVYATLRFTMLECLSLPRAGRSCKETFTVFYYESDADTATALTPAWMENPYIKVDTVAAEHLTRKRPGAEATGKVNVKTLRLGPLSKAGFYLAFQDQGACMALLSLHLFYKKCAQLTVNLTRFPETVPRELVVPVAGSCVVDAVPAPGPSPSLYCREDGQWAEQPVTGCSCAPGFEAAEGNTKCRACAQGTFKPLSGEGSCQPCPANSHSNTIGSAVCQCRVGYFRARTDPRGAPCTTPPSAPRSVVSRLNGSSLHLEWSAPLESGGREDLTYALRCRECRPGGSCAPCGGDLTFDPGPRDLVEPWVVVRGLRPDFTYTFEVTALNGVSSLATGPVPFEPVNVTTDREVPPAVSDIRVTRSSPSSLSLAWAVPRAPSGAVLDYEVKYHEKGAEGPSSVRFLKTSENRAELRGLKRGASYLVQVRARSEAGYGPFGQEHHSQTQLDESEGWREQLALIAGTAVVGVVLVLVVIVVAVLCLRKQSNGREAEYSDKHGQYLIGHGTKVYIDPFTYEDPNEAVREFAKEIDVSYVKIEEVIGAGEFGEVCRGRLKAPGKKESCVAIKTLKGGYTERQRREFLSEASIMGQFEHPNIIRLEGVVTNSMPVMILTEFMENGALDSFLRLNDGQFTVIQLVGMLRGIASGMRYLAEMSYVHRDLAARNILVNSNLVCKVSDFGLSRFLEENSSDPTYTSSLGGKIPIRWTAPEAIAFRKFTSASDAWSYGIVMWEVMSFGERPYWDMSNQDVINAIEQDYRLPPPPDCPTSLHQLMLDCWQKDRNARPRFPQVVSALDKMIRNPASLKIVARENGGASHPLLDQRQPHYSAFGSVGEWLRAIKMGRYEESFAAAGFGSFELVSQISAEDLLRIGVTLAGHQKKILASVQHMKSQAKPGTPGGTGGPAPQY
In short: as §1

NEK9 = NEK9 (Homo sapiens, UniProt Q8TD19)
In short: as §1

YANK2 = target: T7, YANK2 (Homo sapiens, UniProt Q9NY57)
T7 construct: gene STK32B
In short: as §1

PIK3CA(C420R) = PIK3CA(C420R) (Homo sapiens, UniProt P42336, C420R)
In short: as §1

CDK2 = CDK2 (Homo sapiens, UniProt P24941)
In short: as §1

[3] = target: T8, ABL1(Q252H)-nonphosphorylated (Homo sapiens, UniProt P00519, Q252H)
T8 construct: nonphosphorylated
In short: as §1

ACVR2B = ACVR2B (Homo sapiens, UniProt Q13705)
Chain of ACVR2B (Q13705 whole entry): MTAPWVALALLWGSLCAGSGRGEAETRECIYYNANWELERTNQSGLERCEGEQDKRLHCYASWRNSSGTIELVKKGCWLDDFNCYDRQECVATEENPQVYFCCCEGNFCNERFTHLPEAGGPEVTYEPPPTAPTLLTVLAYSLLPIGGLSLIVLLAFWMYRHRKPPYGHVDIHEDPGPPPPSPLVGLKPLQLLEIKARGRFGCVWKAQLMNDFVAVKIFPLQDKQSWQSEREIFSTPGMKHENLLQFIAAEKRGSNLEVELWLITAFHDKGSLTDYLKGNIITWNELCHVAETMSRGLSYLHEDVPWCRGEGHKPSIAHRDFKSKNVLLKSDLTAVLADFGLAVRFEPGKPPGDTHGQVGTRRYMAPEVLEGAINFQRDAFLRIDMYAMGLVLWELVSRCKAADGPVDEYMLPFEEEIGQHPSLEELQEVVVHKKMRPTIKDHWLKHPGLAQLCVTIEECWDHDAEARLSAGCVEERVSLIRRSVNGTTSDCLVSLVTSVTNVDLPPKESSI
In short: as §1

TESK1 = TESK1 (Homo sapiens, UniProt Q15569)
In short: as §1

NEK2 = NEK2 (Homo sapiens, UniProt P51955)
Chain of NEK2 (P51955 whole entry): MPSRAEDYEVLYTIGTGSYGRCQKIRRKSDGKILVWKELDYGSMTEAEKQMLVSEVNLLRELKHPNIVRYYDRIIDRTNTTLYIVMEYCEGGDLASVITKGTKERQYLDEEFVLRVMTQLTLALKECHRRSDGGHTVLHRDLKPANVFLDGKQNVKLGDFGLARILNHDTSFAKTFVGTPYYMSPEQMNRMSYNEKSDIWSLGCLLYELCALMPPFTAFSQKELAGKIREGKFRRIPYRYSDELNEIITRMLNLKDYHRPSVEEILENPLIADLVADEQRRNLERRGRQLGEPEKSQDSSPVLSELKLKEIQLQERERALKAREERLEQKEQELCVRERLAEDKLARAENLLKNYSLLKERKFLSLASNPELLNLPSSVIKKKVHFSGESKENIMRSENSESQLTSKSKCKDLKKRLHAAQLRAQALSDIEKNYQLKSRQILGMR
In short: as §1

CNS(=O)(=O)c1ccc(N(C)C)c(Nc2ncnc3cc(OC)c(OC)cc23)c1 [compound 7, 3-((6,7-dimethoxyquinazolin-4-yl)amino)-4-(dimethylamino)-N-methylbenzenesulfonamide]
inhibition at 1 µM (PAK6): 7%
inhibition at 1 µM (AXL): 12%
inhibition at 1 µM (JNK2): 0%
inhibition at 1 µM (ERK3): 0%
inhibition at 1 µM [1]: 0%
inhibition at 1 µM (PCTK1): 13%
inhibition at 1 µM (ERBB3): 31%
inhibition at 1 µM (PFTAIRE2): 0%
inhibition at 1 µM (GRK1): 0%
inhibition at 1 µM [2]: 17%
inhibition at 1 µM (PLK1): 0%
inhibition at 1 µM (PRKCH): 13%
inhibition at 1 µM (CHEK2): 11%
inhibition at 1 µM (PIK3CA(H1047L)): 0%
inhibition at 1 µM (CSF1R-autoinhibited): 39%
inhibition at 1 µM (EPHB4): 0%
inhibition at 1 µM (NEK9): 0%
inhibition at 1 µM (YANK2): 0%
inhibition at 1 µM (PIK3CA(C420R)): 5%
inhibition at 1 µM (CDK2): 0%
inhibition at 1 µM [3]: 50%
inhibition at 1 µM (ACVR2B): 6%
inhibition at 1 µM (TESK1): 0%
inhibition at 1 µM (NEK2): 2%
